Patent US20100196287A1, “Compositions Comprising Perhydrolases and Alkylene Glycol Diacetates” (priority 2007, published 2010)

Key:
[1] = Washing test on stained fabric with perhydrolase and substrate, tea stain; details: 50 mM substrate, 60 min., 40° C.; in comparison with methyl acetate; FIG. 1
Method: (§1) • blueberry juice on cotton: product no. C15 from CFT B. V. Vlaardingen, Holland • tea on cotton: product no. 167, Eidgenössische Material- and Prüfanstalt (EMPA) Testmaterialien AG, St. Gallen, Switzerland
(§2) After incubation, the stains were washed three times (3×), dried and fixed. Intensity was measured with a colorimeter Cm508d (Minolta). For this test, round pieces of the test fabric (diameter 10 mm) were incubated in 1 ml alkaline solution in a 24 well microtitration plate. Each test was carried out as a triple determination against a triply determined control. After washing, the degree of whiteness of the washed fabrics was measured in comparison with a whiteness standard (d/8, Ø 8 mm, SCl/SCE), which had been set at 100% (L-value determination). The measurement was made using a colorimeter (Minolta Cm508d) with a light setting of 10°/D65. The results were expressed as percent power, wherein the difference of the reflectance value of the base washing agent without enzymes but with substrate was normalized to 100% (with the comparison substrate methyl acetate).

[2] = Washing test on stained fabric with perhydrolase and substrate, blueberry stain; details: 50 mM substrate, 60 min., 40° C.; in comparison with methyl acetate; FIG. 1
Method: as §1, §2

Toxicity (statement) = details: in contrast to methyl acetate
[3] = Water solubility (statement); format: physicochemical; details: in contrast to methyl acetate

washing power for tea stains [1] | washing power for blueberry stains [2] | water solubility [3] | SMILES | toxicity (Toxicity (statement))
significantly better | comparable |  | CC(=O)OCCOC(C)=O [Ethylene glycol diacetate] | non-toxic
comparable | comparable | highly water-soluble | CC(=O)OCC(C)OC(C)=O (stereo not shown) [Propylene glycol diacetate] | non-toxic
